Patent publication US11752155B2, “Treatment of autism spectrum disorders, obsessive-compulsive disorder and anxiety disorders” (Rugen Holdings (Cayman) Limited, priority 2016, dated 2023)
Several values for one entry are separate records, joined by “and”; a condition that tells them apart may be missing. Identical values can stand only once. Entries after “also recorded” stand apart in the source; their conditions may differ. Like-named read-outs stand apart in the source and are kept apart here.

What was measured:
hERG channel = hERG channel (Homo sapiens (Human), UniProt Q12809); assay: hERG channel inhibition, whole cell patch clamp in HEK293 cells; assay type: cell-based; settings: for inhibition at 5 min, 10 µM: human, HEK293 cells stably expressing hERG channel, pH 7.35
Experimental: The assay was performed on hERG channel stably expressed in HEK293 cells. The cells were cultured at 37° C. in a humidified CO2 incubator in the growth medium consisting of DMEM, 10% fetal bovine serum and antibiotics. Prior to the assay, the cells were seeded onto a 12-mm PDL-coated glass coverslip and cultured in a 35-mm Petri dish. After 16 to 40 hours culture, the coverslip was transferred into the chamber of OctaFlow perfusion system (ALA Instrument) and under a constant flow of extracellular solution (140 mM NaCl, 4 mM KCl, 1 mM MgCl2, 2 mM CaCl2, 10 mM HEPES, 10 mM D-glucose, pH 7.35, osmolarity 290). Whole cell patch clamping was performed with a glass micropipette filled with intracellular solution (120 mM KCl, 1.75 mM MgCl2, 5.4 mM CaCl2, 10 mM HEPES, 10 mM EGTA, and 4 mM ATP-K2, pH 7.2, osmolarity 310). Giga-seal was maintained during the test. The voltage control and current measurement were carried out using Axon amplifier 700B, Digidata 1440A and CLAMPEX10 software (Molecular Devices). Whole-cell hERG currents were recorded following the Petroski protocol: the cell was held at −80 mV, and the voltage step jumped from −80 to 30 mV and stay for 2 seconds with a 20-millisecond prepulse at −40 mV. After depolarization, the voltage was decreased to −40 mV and stay for 2 seconds, and returned back to −80 mV. Test compound was applied by quartz capillary tubes tip (200 m inner diameter), and the flow rate was controlled at 2-3 mL/min with OctaFlow perfusion system. Different concentrations of the compound were applied to the cells for 5 minutes and the hERG current was measured three times before, during and after compound treatment. The data were analyzed using Clampfit 10 software (Molecular Devices) to generate IC50 values.

Sapap3 knockout mice = assay: Grooming Test in Sapap3 knockout mice; assay type: in vivo, mouse; settings: for tachyphylaxis with repeated weekly dosing: dosed IP on Days 1, 15, 22, 29; for acute effect on excessive self-grooming: single IP dose, Day 1
Experimental: (§1) Animals. The breeding conditions and genotyping methods for Sapap3 and Shank3 complete knockout mice were the same as described in Welch et al. (Nature 2007, 448(7156):894-900) and in Wang et al. (Nat. Commun. 2016, 7:11459), respectively. Homozygous knockout mice and littermate wild type mice of both genders were used at 4 to 8 weeks of age.
(§2) Compound formulation. The test compounds were dissolved in a small volume of dimethyl sulfoxide (DMSO) and diluted in an aqueous solution of 2-hydroxypropyl-beta-cyclodextrin (HP-β-CD) and administered IP. Dosing volume was 10 mL/kg. At 20 minutes after dosing, the mice were subjected to the behavioral test as described below.
(§3) Testing room and apparatus. The test room was maintained under the same conditions as the colony rooms, except the mice were housed in conventional shoe-box cages with food, water, and nesting materials. Animals were housed in the test room 48-72 hours prior to testing, in order to permit the mice to fully acclimate to the test room and conventional housing cages before testing. Tests were conducted in white polyvinyl-fluoride hard-sided foam test arenas (20×20×12 cm). The arenas were indirectly illuminated by dimmable LED light bars placed level with the arena floor and 30 cm away from the external wall of the test arena. This permitted the internal area of the arena to be evenly illuminated at approximately 40 lux. The illumination levels where the mice were housed before testing were about 80-100 lux.
(§4) Testing procedure. Mice were carefully placed into the test arenas 20 minutes after compound administration. Animals were given free exploration of the arena for 10 minutes, after which they were gently sprayed with 4 quick pumps of a water mist (total water volume approximated 1.5-1.7 mL). Mice were then allowed an additional 10 minutes to self-groom and engage in other behaviors before being removed from the arena. All tests were videotaped using cameras mounted above the testing arena and were saved to digital media format using Noldus Media Player software (Noldus Information Technologies, Leesburg, Va.). The mice were only tested once in the acute studies and were repeatedly tested in the sustained effect studies.
(§5) Quantitation of grooming bouts. Analyses of the video recordings were conducted with TopScan behavioral recognition software (Cleversys Inc, Reston, Va.). Configurations were made which scored time spent in grooming. […] These settings permitted automated scoring of grooming by TopScan that corresponded well to manual-scoring of these behaviors by a trained blinded observer using Noldus Observer XT9 (Noldus Information Technologies), with an average corrected kappa of 0.925 (range 0.807-0.983).
(§6) Statistical analyses. Data are presented as means and standard error of the means (SEMs). Analyses were conducted using SPSS 23 (IBM SPSS Statistics, Chicago, Ill.). Time spent in grooming behavior (seconds) over the 10-minute pre- and post-spray time blocks were analyzed with repeated measures analyses of variance (RMANOVA). The pre- and post-spray times were used for the within subject effects and the genotype and compound treatment condition were used as the between subject effects. In sustained effect studies, days were also used for a within subject effect. Some analyses of total groom time were performed in Prism 7.01 (GraphPad Software, La Jolla, Calif.), with one-way ANOVAs to compare genotypes on Day 1 or with RMANOVAs to compare treatment groups within the same genotype across days. Treatments with compounds were compared independently with the vehicle. All post-hoc comparisons were performed with Bonferroni corrections for multiple comparisons to avoid a Type I error. In all cases, a p<0.05 was considered significant.
Next, the effect of two subunit-selective NR2B antagonists administered as a single IP dose and assessed 20 minutes postdose was studied in the Sapap3 knockout mice (n=6-10 mice per treatment group). […]

[1] = test system: wild type littermate mice; assay: Grooming Test in wild type littermates of Sapap3 and Shank3 complete knockout mice; assay type: in vivo, mouse; settings: for effect on grooming on Day 3 / effect on grooming on Day 5: 3 mg/kg IP on Day 1, wild type littermates; for effect on grooming on Day 1: 3 mg/kg IP, wild type littermates; for acute effect on grooming on Day 1: wild type littermates of Sapap3 knockout mice, dose-dependent
Experimental: as §1, §2, §3, §4, §5, §6
The wild type littermates of the Sapap3 knockout and Shank3 complete knockout mice were retested after Day 1 compound administration to determine whether the sustained effects were unique to the knockout mice. […]

[2] = test system: wild type mice (male C57Bl/6); assay: Novelty Phobia Test in wild type mice; assay type: in vivo, mouse; settings: for change in vivo at 0.3 mg/kg / change in vivo at 1 mg/kg / change in vivo at 30 mg/kg / change in vivo at 3 mg/kg / change in vivo at 10 mg/kg: Mus musculus, ip, IP, read-out: Percent Change in Novel Object Number of Nose Touches relative to vehicle control; for pattern of the dose-response function for bouts of nose touching: mouse, in vivo
Experimental: Animals. Male C57Bl/6 mice (18-30 g body weight; 6-8 weeks of age) were obtained from Slaccas (Shanghai, China) and allowed to acclimate to the animal facility for 7 days. Mice were group housed in plastic cages (no more than 4 animals per cage) on wood shavings with nesting material. All animals had free access to food (M01-F, Slaccas) and water. The animal facility was maintained under artificial lighting between 7:00 AM and 7:00 PM in a controlled ambient temperature of 22-24° C. and relative humidity between 50-60%.
Compound formulation. The test compounds were prepared in a vehicle of DMSO and HP-β-CD, and administered IP or PO. The test compounds or vehicle were administered at various times (10-20 minutes) before the behavioral test described below. Dosing volume was 10 mL/kg.
Testing procedure. The behavioral testing apparatus was a rectangular black Plexiglas, 2-chambered box, with no top or bottom (50 cm long, 26 cm wide and 15 cm tall) and allowed for the simultaneous testing of 2 mice. The box was placed on a laboratory bench. The chambers of the testing box were cleaned and fresh paper chip bedding was added between tests. Mice were brought to the experiment room in their home cages on the day of testing. Behavioral tests were conducted between 10:00 AM and 1:00 PM in dim light. After drug administration, a mouse was placed into a test chamber and allowed to explore for 10 minutes. After this habituation period, a novel object (e.g., a toy ball of 3 cm in diameter with spikes) was introduced to the center of the chamber for 5 minutes. For the entire 15-minute test period, video was recorded for offline analysis with Any-maze Video Tracking software (Stoelting Co., Wood Dale, Ill.). The total distance traveled during the entire 15 minutes and the number of bouts that each mouse touched the novel object during the last 5 minutes were measured.
Statistical analyses. Data are presented as means and SEMs. Data were analyzed using one-way analysis of variance (ANOVA; Prism, GraphPad Software Inc., San Diego, Calif.), followed by the post-hoc Dunnett's test to compare test compound-treated groups with the vehicle control. A p value<0.05 was considered significant.

CYP2D6 = CYP2D6 (Homo sapiens (Human), UniProt P10635); assay: CYP P450 enzyme inhibition in pooled human liver microsomes (dextromethorphan probe); assay type: in vitro ADME; settings: for inhibition at 10 min, 10 µM: human, pooled human liver microsomes, pH 7.4, probe dextromethorphan, 5 μM, read-out: CYP2D6 Inhibiton at 10 μM
Experimental: Test compound concentration-dependent response studies were performed in triplicate.

[3] = single dose 1 mg/kg IP on Day 1

Sequence of CYP2D6 (P10635 whole entry): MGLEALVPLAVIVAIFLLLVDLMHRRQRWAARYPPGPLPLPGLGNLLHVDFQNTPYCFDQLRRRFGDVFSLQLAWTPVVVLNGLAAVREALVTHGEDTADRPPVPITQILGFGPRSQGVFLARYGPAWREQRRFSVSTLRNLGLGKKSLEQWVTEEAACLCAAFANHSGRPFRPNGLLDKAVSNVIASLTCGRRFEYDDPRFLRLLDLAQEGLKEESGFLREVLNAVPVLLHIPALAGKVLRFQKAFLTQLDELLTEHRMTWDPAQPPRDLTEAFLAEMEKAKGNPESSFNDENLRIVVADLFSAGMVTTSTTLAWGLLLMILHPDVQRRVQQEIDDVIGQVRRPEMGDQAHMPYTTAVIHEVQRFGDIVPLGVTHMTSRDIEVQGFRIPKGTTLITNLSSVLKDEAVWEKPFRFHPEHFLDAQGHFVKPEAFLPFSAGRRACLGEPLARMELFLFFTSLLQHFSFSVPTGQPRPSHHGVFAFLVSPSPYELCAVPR
Sequence of hERG channel (Q12809 whole entry): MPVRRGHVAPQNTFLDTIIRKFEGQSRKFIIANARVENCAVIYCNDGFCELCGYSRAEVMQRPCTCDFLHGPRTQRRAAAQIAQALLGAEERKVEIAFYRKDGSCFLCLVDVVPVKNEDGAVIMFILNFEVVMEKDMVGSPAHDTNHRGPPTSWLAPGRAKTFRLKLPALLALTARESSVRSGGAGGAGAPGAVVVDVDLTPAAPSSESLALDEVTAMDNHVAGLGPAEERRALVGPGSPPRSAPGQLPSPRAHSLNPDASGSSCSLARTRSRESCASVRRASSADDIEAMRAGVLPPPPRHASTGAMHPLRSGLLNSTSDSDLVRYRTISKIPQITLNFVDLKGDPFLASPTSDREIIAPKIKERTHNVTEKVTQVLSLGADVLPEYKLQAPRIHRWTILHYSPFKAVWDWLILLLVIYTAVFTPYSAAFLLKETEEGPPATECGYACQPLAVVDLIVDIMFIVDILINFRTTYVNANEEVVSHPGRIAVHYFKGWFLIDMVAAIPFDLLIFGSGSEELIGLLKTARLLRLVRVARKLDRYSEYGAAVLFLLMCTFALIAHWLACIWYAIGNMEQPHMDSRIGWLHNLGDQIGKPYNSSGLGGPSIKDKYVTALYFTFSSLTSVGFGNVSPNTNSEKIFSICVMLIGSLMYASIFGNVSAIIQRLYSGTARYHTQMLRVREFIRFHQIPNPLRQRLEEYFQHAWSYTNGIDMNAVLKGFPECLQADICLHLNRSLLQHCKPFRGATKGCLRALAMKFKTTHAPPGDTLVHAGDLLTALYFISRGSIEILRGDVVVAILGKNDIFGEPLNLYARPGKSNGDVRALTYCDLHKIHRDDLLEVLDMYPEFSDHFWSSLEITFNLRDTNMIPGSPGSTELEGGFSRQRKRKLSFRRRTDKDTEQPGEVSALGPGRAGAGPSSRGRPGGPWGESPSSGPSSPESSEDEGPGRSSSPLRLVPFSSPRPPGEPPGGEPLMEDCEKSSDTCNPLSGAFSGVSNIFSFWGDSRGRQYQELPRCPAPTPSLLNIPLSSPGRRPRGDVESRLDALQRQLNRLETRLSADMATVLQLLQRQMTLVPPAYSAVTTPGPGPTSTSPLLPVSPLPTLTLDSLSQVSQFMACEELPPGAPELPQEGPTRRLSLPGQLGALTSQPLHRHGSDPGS

Compound	tachyphylaxis with repeated weekly dosing (Sapap3 knockout mice)	significantly reduced grooming through Day (Sapap3 knockout mice; first dose 3 mg/kg IP on Day 1) [days]	acute effect on excessive self-grooming (Sapap3 knockout mice; 20 min postdose)	significantly reduced grooming through Day (Sapap3 knockout mice; [3]) [days]	effect on grooming on Day 3 [1]	effect on grooming on Day 5 [1]	effect on grooming on Day 1 [1]	acute effect on grooming on Day 1 [1]	change in vivo at 3 mg/kg ([2]; 20 min, pre-test time 20 min) [%]	pattern of the dose-response function for bouts of nose touching [2]	IC50 (hERG channel; Table 1.3B)	inhibition at 5 min, 10 µM (hERG channel) [%]	inhibition at 10 min, 10 µM (CYP2D6) [%]	change in vivo at 10 mg/kg ([2]; 20 min, pre-test time 20 min) [%]	change in vivo at 30 mg/kg ([2]; 20 min, pre-test time 20 min) [%]	further results
FC(F)c1ccc(C(F)(F)CN2CCC(Nc3ncnc4[nH]ccc34)CC2)cc1 [C-179^A′]	no tachyphylaxis developed; also recorded: tachyphylaxis was not observed	8	significantly reduced grooming; also recorded: markedly reduced excessive self-grooming	5	significantly reduced grooming	comparable to the level in the vehicle-treated group	significantly reduced grooming	significantly reduced grooming	164	inverted U-shaped dose-response function						IC50 (hERG channel; Table 1.3A): 1.4 µM; magnitude of the reduction in self-grooming (Sapap3 knockout mice; 1 mg/kg IP, pre-spray): 43.6%; magnitude of the reduction in self-grooming (Sapap3 knockout mice; 3 mg/kg IP, pre-spray): 80.5%; magnitude of the reduction in self-grooming (Sapap3 knockout mice; 10 mg/kg IP, pre-spray): 91.7%; reductions in self-grooming (Sapap3 knockout mice; 1, 3 and 10 mg/kg IP, post-spray): 66.9% to 77.6%; significantly reduced grooming through Day (Sapap3 knockout mice; single dose 0.32 mg/kg IP on Day 1): 5 days; significantly reduced grooming through Day (Sapap3 knockout mice; single dose 0.56 mg/kg IP on Day 1): 5 days; sustained efficacy lasting for (Sapap3 knockout mice; single dose of 3 mg/kg IP): 1 week; change in vivo at 0.3 mg/kg ([2]; 0.25 h, pre-test time 15 min): -12%; change in vivo at 1 mg/kg ([2]; 0.25 h, pre-test time 15 min): 64.7%; change in vivo at 30 mg/kg ([2]; 0.25 h, pre-test time 15 min): 28%; change in vivo at 0.3 mg/kg ([2]; 20 min, pre-test time 20 min): 51.7%; change in vivo at 1 mg/kg ([2]; 20 min, pre-test time 20 min): 139%
Cc1ccc(COC(=O)N2CC[C@H](CNc3nccn4cnnc34)C(F)(F)C2)cc1 [E1-1.2^B′]			markedly reduced excessive self-grooming							dose-dependent increases	40 µM	17	14			magnitude of the reduction in self-grooming (Sapap3 knockout mice; 3 mg/kg IP, 20 min postdose, pre- and post-spray): 70%-80%; magnitude of the reduction in self-grooming (Sapap3 knockout mice; 10 mg/kg IP, 20 min postdose, pre- and post-spray): > 90%; magnitude of the reduction in self-grooming (Sapap3 knockout mice; 30 mg/kg IP, 20 min postdose, pre- and post-spray): > 90%; change in vivo at 0.3 mg/kg ([2]; 10 min, pre-test time 10 min): 16.1%; change in vivo at 10 mg/kg ([2]; 10 min, pre-test time 10 min): 218%
Cc1ccc(COC(=O)N2CC[C@H](CNc3cnc(C)cn3)C(F)(F)C2)cc1 [E1-21.26^B′]	without tachyphylaxis	5	significantly reduced grooming					significantly reduced grooming	141	dose-dependent increases		39	32	149	171	effects lasting through Day after the fourth and final dose on Day 29 (Sapap3 knockout mice; 3 mg/kg IP on Days 1, 15, 22, 29): 40 days; effects lasting through Day after the fourth and final dose on Day 29 (Sapap3 knockout mice; 10 mg/kg IP on Days 1, 15, 22, 29): 43 days; significant reduction in grooming wore off by Day (Sapap3 knockout mice; first dose of 3 mg/kg IP): 8 days
Cc1ccc(COC(=O)N2CC[C@H](CNc3ncccn3)C(F)(F)C2)cc1 [E1-22.2^B′]		22	significantly reduced grooming	19	significantly reduced grooming	comparable to the level in the vehicle-treated group	significantly reduced grooming	significantly reduced grooming	163		> 10 µM and 17 µM			115	98.9	IC50 (CYP2D6; Table 1.4B): > 50 µM
